The first test has as its target T1, human PDE2A1 (Homo sapiens, UniProt O00408).
T1 construct: GST; purchased BPS Bioscience (San Diego, Calif.) 60020; host or cells: insect cells
The test can be described thus: PDE2 IMAP FP inhibition assay, human enzyme (PDE selectivity panel format). In kind it is biochemical. The conditions noted are these: Lab A; read-out: Human PDE2 Ki (nM) Lab A. The gist of the method:
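GST-tagged human PDE2A1 from insect cells, run at room temperature in 10 mM Tris pH 7.2, 10 mM MgCl2, 1 mM DTT with 50 nM FAM-cAMP plus 1000 nM cGMP for 60 min. IMAP fluorescence polarization read-out; apparent Ki derived using apparent KM 10,000 nM.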
T1 sequence (O00408 1-920 isoform O00408-2): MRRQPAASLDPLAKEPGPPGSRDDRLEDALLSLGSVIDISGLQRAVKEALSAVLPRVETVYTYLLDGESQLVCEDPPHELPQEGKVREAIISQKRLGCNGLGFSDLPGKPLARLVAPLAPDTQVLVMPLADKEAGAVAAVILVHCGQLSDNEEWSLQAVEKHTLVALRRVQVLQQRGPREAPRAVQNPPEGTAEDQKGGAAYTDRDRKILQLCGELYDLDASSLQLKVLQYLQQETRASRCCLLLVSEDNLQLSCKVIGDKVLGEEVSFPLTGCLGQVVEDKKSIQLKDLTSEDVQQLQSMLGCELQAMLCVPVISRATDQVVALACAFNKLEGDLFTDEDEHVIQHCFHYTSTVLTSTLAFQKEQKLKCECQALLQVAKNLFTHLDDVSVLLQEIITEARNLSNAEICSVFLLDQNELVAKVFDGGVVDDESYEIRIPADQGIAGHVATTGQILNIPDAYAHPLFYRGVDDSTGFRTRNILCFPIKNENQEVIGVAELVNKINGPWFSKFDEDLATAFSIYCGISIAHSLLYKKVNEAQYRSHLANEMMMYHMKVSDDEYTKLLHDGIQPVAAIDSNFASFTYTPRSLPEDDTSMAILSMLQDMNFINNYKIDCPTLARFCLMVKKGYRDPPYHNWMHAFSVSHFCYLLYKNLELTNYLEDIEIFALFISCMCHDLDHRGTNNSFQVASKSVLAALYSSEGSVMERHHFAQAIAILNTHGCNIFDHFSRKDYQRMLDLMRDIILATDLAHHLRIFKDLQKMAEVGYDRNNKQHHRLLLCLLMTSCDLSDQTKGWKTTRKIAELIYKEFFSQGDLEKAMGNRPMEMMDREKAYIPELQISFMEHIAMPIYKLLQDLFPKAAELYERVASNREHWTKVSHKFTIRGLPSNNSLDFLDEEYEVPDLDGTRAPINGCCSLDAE
One may read the Ki as a dissociation constant, usually derived from enzyme kinetics or from competition with a known ligand. For `Cc1nc(-c2cnn(C(C)c3ccc(C(F)(F)F)cc3Cl)c2)cc(=O)[nH]1` (single isomer, unassigned) [Example 83, (R)- or (S)-6-(1-(1-(2-chloro-4-(trifluoromethyl)phenyl)ethyl)-1H-pyrazol-4-yl)-2-methylpyrimidin-4(3H)-one], the Ki was found to be 5.1 nM.

Consider `CCc1nc(-c2cnn(C(C)c3ccc(C(F)(F)F)cc3F)c2)cc(=O)[nH]1` (single isomer, unassigned) [Example 85, (R)- or (S)-2-ethyl-6-(1-(1-(2-fluoro-4-(trifluoromethyl)phenyl)ethyl)-1H-pyrazol-4-yl)pyrimidin-4(3H)-one], for which the Ki stood at 10.4 nM. Same read-out and setting: the same measure for `Cc1nc(-c2cnn(C(C)c3ccc(C4CC4)cc3F)c2)cc(=O)[nH]1` (single isomer, unassigned) [Example 91, (R)- or (S)-6-(1-(1-(4-cyclopropyl-2-fluorophenyl)ethyl)-1H-pyrazol-4-yl)-2-methylpyrimidin-4(3H)-one]: 48.4 nM; for `Cc1nc(-c2cnn(C(C)c3ccc(C4CC4)cc3C)c2)cc(=O)[nH]1` (single isomer, unassigned) [Example 94, (S)- or (R)-6-(1-(1-(4-cyclopropyl-2-methylphenyl)ethyl)-1H-pyrazol-4-yl)-2-methylpyrimidin-4(3H)-one]: 52.5 nM. On to `CCc1ccc(C(C)n2cc(-c3cc(=O)[nH]c(C)n3)cn2)c(Cl)c1` (single isomer, unassigned) [Example 99, (R)- or (S)-6-(1-(1-(2-chloro-4-ethylphenyl)ethyl)-1H-pyrazol-4-yl)-2-methylpyrimidin-4(3H)-one], for which the inhibition constant (Ki) is 10.4 nM. Turning to `CCc1ccc(C(C)n2cc(-c3cc(=O)[nH]c(C)n3)cn2)c(F)c1` (single isomer, unassigned) [Example 101, (R)- or (S)-6-(1-(1-(4-ethyl-2-fluorophenyl)ethyl)-1H-pyrazol-4-yl)-2-methylpyrimidin-4(3H)-one], the Ki was 38.5 nM.

As to `Cc1nc(-c2cnn(C(C)c3ccc(C(F)(F)F)cc3F)c2)cc(=O)[nH]1` (single isomer, unassigned) [Example 136, (S)- or (R)-6-(1-(1-(2-fluoro-4-(trifluoromethyl)phenyl)ethyl)-1H-pyrazol-4-yl)-2-methylpyrimidin-4(3H)-one], the Ki is 19.1 nM. Consider `COc1ccc(Cc2nc(-c3cnn(C(C)c4ccc(C(F)(F)F)cc4F)c3)cc(=O)[nH]2)cc1` (single isomer, unassigned) [Example 138, (R)- or (S)-6-(1-(1-(2-fluoro-4-(trifluoromethyl)phenyl)ethyl)-1H-pyrazol-4-yl)-2-(4-methoxybenzyl)pyrimidin-4(3H)-one], for which the Ki amounted to 7.1 nM. Regarding `COc1ccc(Cc2nc(-c3cnn(C(C)c4ccc(C(F)(F)F)cc4F)c3)cc(=O)[nH]2)cc1` (single isomer, unassigned) [Example 139, (S)- or (R)-6-(1-(1-(2-fluoro-4-(trifluoromethyl)phenyl)ethyl)-1H-pyrazol-4-yl)-2-(4-methoxybenzyl)pyrimidin-4(3H)-one], the inhibition constant (Ki) is 41.6 nM. On to `COc1cccc(Cc2nc(-c3cnn(C(C)c4ccc(C(F)(F)F)cc4F)c3)cc(=O)[nH]2)c1` (single isomer, unassigned) [Example 140, (R)- or (S)-6-(1-(1-(2-fluoro-4-(trifluoromethyl)phenyl)ethyl)-1H-pyrazol-4-yl)-2-(3-methoxybenzyl)pyrimidin-4(3H)-one], for which the Ki was determined as 2.6 nM. For `COc1cccc(Cc2nc(-c3cnn(C(C)c4ccc(C(F)(F)F)cc4F)c3)cc(=O)[nH]2)c1` (single isomer, unassigned) [Example 141, (S)- or (R)-6-(1-(1-(2-fluoro-4-(trifluoromethyl)phenyl)ethyl)-1H-pyrazol-4-yl)-2-(3-methoxybenzyl)pyrimidin-4(3H)-one], the Ki amounted to 17.3 nM.

`COc1cc(Cc2nc(-c3cnn(C(C)c4ccc(C(F)(F)F)cc4F)c3)cc(=O)[nH]2)ccc1F` (single isomer, unassigned) [Example 142, (R)- or (S)-2-(4-fluoro-3-methoxybenzyl)-6-(1-(1-(2-fluoro-4-(trifluoromethyl)phenyl)ethyl)-1H-pyrazol-4-yl)pyrimidin-4(3H)-one]: the inhibitory constant (Ki) was determined as 3.5 nM.

For the molecule `COc1cc(Cc2nc(-c3cnn(C(C)c4ccc(C(F)(F)F)cc4F)c3)cc(=O)[nH]2)ccc1F` (single isomer, unassigned) [Example 143, (S)- or (R)-2-(4-fluoro-3-methoxybenzyl)-6-(1-(1-(2-fluoro-4-(trifluoromethyl)phenyl)ethyl)-1H-pyrazol-4-yl)pyrimidin-4(3H)-one], the Ki came out at 27.9 nM. On to `COc1ccc(Cc2nc(-c3cnn(C(C)c4ccc(C(F)(F)F)cc4F)c3)cc(=O)[nH]2)cc1F` (single isomer, unassigned) [Example 146, (R)- or (S)-6-(1-(1-(2-fluoro-4-(trifluoromethyl)phenyl)ethyl)-1H-pyrazol-4-yl)-2-(3-fluoro-4-methoxybenzyl)pyrimidin-4(3H)-one], for which the Ki stood at 31.2 nM. Take `COc1ccc(Cc2nc(-c3cnn(C(C)c4ccc(C(F)(F)F)cc4F)c3)cc(=O)[nH]2)cc1F` (single isomer, unassigned) [Example 147, (S)- or (R)-6-(1-(1-(2-fluoro-4-(trifluoromethyl)phenyl)ethyl)-1H-pyrazol-4-yl)-2-(3-fluoro-4-methoxybenzyl)pyrimidin-4(3H)-one]: the Ki stood at 3.3 nM.

In the case of `Cc1ccc(C(C)n2cc(-c3cc(=O)[nH]c(C)n3)cn2)c(Cl)c1` (single isomer, unassigned) [Example 148, (R)- or (S)-6-(1-(1-(2-chloro-4-methylphenyl)ethyl)-1H-pyrazol-4-yl)-2-methylpyrimidin-4(3H)-one], the Ki is 61 nM. `CC(C)c1nc(-c2cnn(C(C)c3ccc(C(F)(F)F)cc3F)c2)cc(=O)[nH]1` (centres unmarked) [Example 9, 6-(1-(1-(2-Fluoro-4-(trifluoromethyl)phenyl)ethyl)-1H-pyrazol-4-yl)-2-isopropylpyrimidin-4(3H)-one]: the inhibitory constant (Ki) amounted to 104 nM. Turning to `CC(c1ccc(C(F)(F)F)cc1F)n1cc(-c2cc(=O)[nH]c(C3CC3)n2)cn1` (centres unmarked) [Example 10], the Ki was found to be 19.5 nM. The same measure, in the same setting: the same measure for `CCC(c1ccc(C(F)(F)F)cc1F)n1cc(-c2cc(=O)[nH]c(C)n2)cn1` (centres unmarked) [Example 33, 6-(1-(1-(2-fluoro-4-(trifluoromethyl)phenyl)propyl)-1H-pyrazol-4-yl)-2-methylpyrimidin-4(3H)-one]: 32 nM; for `Cc1nc(-c2cnn(C(c3ccc(C(F)(F)F)cc3F)C(C)C)c2)cc(=O)[nH]1` (centres unmarked) [Example 34, 6-(1-(1-(2-fluoro-4-(trifluoromethyl)phenyl)-2-methylpropyl)-1H-pyrazol-4-yl)-2-methylpynmidin-4(3H)-one]: 44.6 nM.

Still in this test, the particulars now being: Lab B; read-out: Human PDE2 Ki (nM) Lab B.
As for `Cc1nc(-c2ccn(C(C)c3ccc(C(F)(F)F)cc3)n2)cc(=O)[nH]1` (single isomer, unassigned) [Example 78, (S)- or (R)-2-methyl-6-(1-{(1R)-1-[4-(trifluoromethyl)phenyl]ethyl}-1H-pyrazol-3-yl)pyrimidin-4(3H)-one], the Ki is 255 nM. Still for that read-out and setting: the same measure for `Cc1nc(-c2cnn(C(C)c3ccc(C(F)(F)F)cc3)c2C)cc(=O)[nH]1` (single isomer, unassigned) [Example 81, (R)- or (S)-2-methyl-6-(5-methyl-1-(1-(4-(trifluoromethyl)phenyl)ethyl)-1H-pyrazol-4-yl)pyrimidin-4(3H)-one]: 194 nM; for `Cc1nc(-c2cnn(C(C)c3ccc(C(F)(F)F)cc3)c2C)cc(=O)[nH]1` (single isomer, unassigned) [Example 82, (S)- or (R)-2-methyl-6-(5-methyl-1-{(1R)-1-[4-(trifluoromethyl)phenyl]ethyl}-1H-pyrazol-4-yl)pyrimidin-4(3H)-one]: 184 nM. For the molecule `Cc1nc(-c2cnn(C(C)c3ccc(OC(F)(F)F)cc3)c2)cc(=O)[nH]1` (single isomer, unassigned) [Example 127, (R)- or (S)-2-methyl-6-(1-(1-(4-(trifluoromethoxy)phenyl)ethyl)-1H-pyrazol-4-yl)pyrimidin-4(3H)-one], the Ki stood at 103 nM. Regarding `COc1ccc(Cc2nc(-n3ccc(C(C)c4ccc(C(F)(F)F)cc4)n3)cc(=O)[nH]2)cc1OC` (single isomer, unassigned) [Example 133, (R)- or (S)-2-(3,4-dimethoxybenzyl)-6-(3-(1-(4-(trifluoromethyl)phenyl)ethyl)-1H-pyrazol-1-yl)pyrimidin-4(3H)-one], the Ki was 38.5 nM. For the molecule `COc1ccc(Cc2nc(-n3ccc(C(C)c4ccc(C(F)(F)F)cc4)n3)cc(=O)[nH]2)cc1OC` (single isomer, unassigned) [Example 134, (R)- or (S)-2-(3,4-dimethoxybenzyl)-6-(3-(1-(4-(trifluoromethyl)phenyl)ethyl)-1H-pyrazol-1-yl)pyrimidin-4(3H)-one], the Ki was determined as 66.6 nM.

With `Cc1nc(-c2cnn(C(C)c3ccc(C(F)(F)F)cc3F)c2)cc(=O)[nH]1` (single isomer, unassigned) [Example 135, (R)- or (S)-6-(1-(1-(2-fluoro-4-(trifluoromethyl)phenyl)ethyl)-1H-pyrazol-4-yl)-2-methylpyrimidin-4(3H)-one], the inhibition constant (Ki) was found to be 91.9 nM.

Take `Cc1nc(-c2cnn(C(C)c3ccc(C(F)(F)F)cc3F)c2)cc(=O)[nH]1` (single isomer, unassigned) [Example 136, (S)- or (R)-6-(1-(1-(2-fluoro-4-(trifluoromethyl)phenyl)ethyl)-1H-pyrazol-4-yl)-2-methylpyrimidin-4(3H)-one]: the Ki was determined as 7.6 nM. As for `COc1ccc(Cc2nc(-c3cnn(C(C)c4ccc(C(F)(F)F)cc4F)c3)cc(=O)[nH]2)cc1` (single isomer, unassigned) [Example 138, (R)- or (S)-6-(1-(1-(2-fluoro-4-(trifluoromethyl)phenyl)ethyl)-1H-pyrazol-4-yl)-2-(4-methoxybenzyl)pyrimidin-4(3H)-one], the inhibition constant Ki amounted to 5.1 nM. With `COc1ccc(Cc2nc(-c3cnn(C(C)c4ccc(C(F)(F)F)cc4F)c3)cc(=O)[nH]2)cc1` (single isomer, unassigned) [Example 139, (S)- or (R)-6-(1-(1-(2-fluoro-4-(trifluoromethyl)phenyl)ethyl)-1H-pyrazol-4-yl)-2-(4-methoxybenzyl)pyrimidin-4(3H)-one], the inhibition constant Ki was 24.5 nM. `Cc1nc(-c2cnn(Cc3ccc(OC(F)(F)F)cc3)c2)cc(=O)[nH]1` [Example 29, 2-Methyl-6-(1-(4-(trifluoromethoxy)benzyl)-1H-pyrazol-4-yl)pyrimidin-4(3H)-one]: the Ki is 829 nM.

Regarding `Cc1nc(-n2cc(Cc3ccc(OC(F)(F)F)cc3)cn2)cc(=O)[nH]1` [Example 30, 2-Methyl-6-(4-(4-(trifluoromethoxy)benzyl)-1H-pyrazol-1-yl)pyrimidin-4(3H)-one], the Ki is 1110 nM.
